In patent US7625894B2, “Pyrrolo[2,3-d]Pyrimidines as Protein Tyrosine Kinase Inhibitors” (Novartis AG, priority 2004, dated 2009):

Tests used:
c-Raf-1 = biological target: T1, c-Raf-1 (Homo sapiens, UniProt P04049); assay: c-Raf-1 protein kinase assay; type: biochemical; parameters: dose or concentration left out as unconfirmed
T1 construct: made in house; host or cells: Sf21 insect cells, triple baculovirus infection (GST-c-Raf-1, v-Ras, v-Src)
Protocol: c-Raf-1 protein kinase assay: Recombinant c-Raf-1 protein is obtained by triple infection of Sf21 cells with GST-c-Raf-1 recombinant baculovirus together with v-Src and v-Ras recombinant baculoviruses that are required for active c-Raf-1 kinase production (Williams et al., PNAS 1992; 89:2922-6). Active Ras (v-Ras) is required to recruit c-Raf-1 to the cell membrane and v-Src to phosphorylate c-Raf-1 to fully activate it. Cells are seeded at 2.5×10^7 cells per 150 mm dish and allowed to attach to a 150 mm dish for 1 hr at RT. Media (SF900II containing 10% FBS) is aspirated and recombinant baculovirus GST-c-Raf-1, v-Ras and v-Src are added at MOI of 3.0, 2.5 and 2.5, respectively, in a total volume of 4-5 mL. Cells are incubated for 1 hr at RT and then 15 mL of medium is added. Infected cells are incubated for 48-72 hr at 27° C. Infected Sf21 cells are scraped and collected into a 50 mL tube and centrifuged for 10 min at 4° C. at 1100 g in a Sorvall centrifuge. The cell pellet is washed once with ice cold PBS and lysed with 0.6 mL lysis buffer per 2.5×10^7 cells. Complete lysis of cells is achieved after 10 min on ice with occasional pipetting. The cell lysates are centrifuged for 10 min at 4° C. at 14,500 g in a Sorvall centrifuge with SS-34 rotor and the supernatant is transferred to a fresh tube and stored at −80° C. c-Raf-1 is purified from cell lysates using 100 μL of packed glutathione-sepharose 4B beads equilibrated in ice cold PBS per 2.5×10^7 cells. GST-c-Raf-1 is allowed to bind to the beads at 4° C. for 1 hr with rocking. Bound GST-c-Raf-1 with beads is transferred to a column. The column is washed once with lysis buffer and twice with ice cold Tris buffered saline. Ice cold elution buffer is added and column flow is stopped to allow the free glutathione to disrupt the interaction of GST-c-Raf-1 with glutathione sepharose beads. Fractions (1 mL) are collected into pre-chilled tubes. Each tube contains 10% glycerol (final concentration) to maintain kinase activity during freeze thaw cycles. Purified fractions of GST-c-Raf-1 kinase protein are stored at −80° C.
IκB is used as substrate for the c-Raf-1 kinase. IκB is expressed in bacteria as a His-tagged protein BL21. LysS bacteria containing the IκB plasmid are grown to an OD600 of 0.6 in LB medium, then induced to express the IκB with IPTG (final concentration of 1 mM) for 3 hrs at 37° C. and then bacteria are lysed by sonication (microtip limit setting for 3 times at 1 min each in sonication buffer [50 mM Tris pH 8.0, 1 mM DTT, 1 mM EDTA] and centrifuged at 10,000 g for 15 min. The supernatant is mixed with ammonium sulfate to give a final concentration of 30%. This mixture is rocked for 15 min at 4 C then spun at 10,000 g for 15 min. The pellet is resuspended in binding buffer (Novagen) containing 10 mM BSA. This solution is applied to Ni-agarose (Novagen) and washed according to the Novagen manual. IκB is eluted from the column using elution buffer (0.4 M imidazole, 0.2 M NaCl, 8 mM Tris pH 7.9). Fractions containing protein are dialysed in 50 mM Tris pH 8, 1 mM DTT. The activity of c-Raf-1 protein kinase is assayed in the presence or absence of inhibitors, by measuring the incorporation of ^33P from [γ^33P] ATP into IκB. The assay is carried out in 96-well plates at ambient temperature for 60 min. It contains (total volume of 30 μL): c-Raf-1 kinase (400 ng), 25 mM Tris.HCl, pH 7.5, 5 mM MgCl2, 5 mM MnCl2, 10 μM Na3VO4, 1 mM DTT and 0.3 μCi/assay [γ^33P]-ATP (10 μM ATP) using 600 ng IκB in the presence of 1% DMSO. Reactions are terminated by adding 10 μL of 250 mM EDTA and 30 μL of the reaction mixture is transferred onto Immobilon-PVDF membrane (Millipore, Bedford, Mass., USA) previously soaked for 5 min with methanol, rinsed with water, then soaked for 5 min with 0.5% H3PO4 and mounted on vacuum manifold with disconnected vacuum source. After spotting all samples, vacuum is connected and each well rinsed with 200 μL 0.5% H3PO4. […]

VEGF receptor (KDR) = biological target: T2, VEGF receptor (KDR) (Homo sapiens, UniProt P35968); assay: Inhibition of VEGF-induced KDR-receptor autophosphorylation in transfected CHO cells; type: cell-based
T2 construct: expressed in transfected cells
Protocol: The inhibition of VEGF-induced KDR-receptor autophosphorylation can be confirmed with a further in vitro experiment in cells: transfected CHO cells, which permanently express human VEGF receptor (KDR), are seeded in complete culture medium with 10% fetal calf serum (FCS) in 6-well cell-culture plates and incubated at 37° C. under 5% CO2 until they show about 80% confluency. The compounds to be tested are then diluted in culture medium (without FCS, with 0.1% bovine serum albumin) and added to the cells. (Controls comprise medium without test compounds). After two hours of incubation at 37° C., recombinant VEGF is added; the final VEGF concentration is 20 ng/mL). After a further five minute incubation at 37° C., the cells are washed twice with ice-cold PBS (phosphate-buffered saline) and immediately lysed in 100 μL lysis buffer per well. The lysates are then centrifuged to remove the cell nuclei, and the protein concentrations of the supernatants are determined using a commercial protein assay (BIORAD). The lysates can then either be immediately used or, if necessary, stored at −20° C.
A sandwich ELISA is carried out to measure the KDR-receptor phosphorylation: a monoclonal antibody to KDR (for example Mab 1495.12.14) is immobilized on black ELISA plates (OptiPlate™ HTRF-96 from Packard). The plates are then washed and the remaining free protein-binding sites are saturated with 1% BSA in PBS. The cell lysates (20 μg protein per well) are then incubated in these plates overnight at 4° C. together with an anti-phosphotyrosine antibody coupled with alkaline phosphatase (PY20: AP from Transduction Laboratories). […] The luminescence is measured in a Packard Top Count Microplate Scintillation Counter (Top Count). The difference between the signal of the positive control (stimulated with VEGF) and that of the negative control (not stimulated with VEGF) corresponds to VEGF-induced KDR-receptor phosphorylation (=100%). The activity of the tested substances is calculated as % inhibition of VEGF-induced KDR-receptor phosphorylation, wherein the concentration of substance that induces half the maximum inhibition is defined as the IC50 (effective dose for 50% inhibition).

[1] = biological target: c-erbB2 tyrosine kinase (HER-2) (Homo sapiens, UniProt P04626); assay: Inhibition of c-erbB2 tyrosine kinase (HER-2); type: biochemical; parameters: dose or concentration left out as unconfirmed
Source text: The inhibition of c-erbB2 tyrosine kinase (HER-2) can be measured, for example, in the same way as the inhibition of EGF-R protein kinase, using known procedures.

Chain of c-erbB2 tyrosine kinase (HER-2) (P04626 23-1255): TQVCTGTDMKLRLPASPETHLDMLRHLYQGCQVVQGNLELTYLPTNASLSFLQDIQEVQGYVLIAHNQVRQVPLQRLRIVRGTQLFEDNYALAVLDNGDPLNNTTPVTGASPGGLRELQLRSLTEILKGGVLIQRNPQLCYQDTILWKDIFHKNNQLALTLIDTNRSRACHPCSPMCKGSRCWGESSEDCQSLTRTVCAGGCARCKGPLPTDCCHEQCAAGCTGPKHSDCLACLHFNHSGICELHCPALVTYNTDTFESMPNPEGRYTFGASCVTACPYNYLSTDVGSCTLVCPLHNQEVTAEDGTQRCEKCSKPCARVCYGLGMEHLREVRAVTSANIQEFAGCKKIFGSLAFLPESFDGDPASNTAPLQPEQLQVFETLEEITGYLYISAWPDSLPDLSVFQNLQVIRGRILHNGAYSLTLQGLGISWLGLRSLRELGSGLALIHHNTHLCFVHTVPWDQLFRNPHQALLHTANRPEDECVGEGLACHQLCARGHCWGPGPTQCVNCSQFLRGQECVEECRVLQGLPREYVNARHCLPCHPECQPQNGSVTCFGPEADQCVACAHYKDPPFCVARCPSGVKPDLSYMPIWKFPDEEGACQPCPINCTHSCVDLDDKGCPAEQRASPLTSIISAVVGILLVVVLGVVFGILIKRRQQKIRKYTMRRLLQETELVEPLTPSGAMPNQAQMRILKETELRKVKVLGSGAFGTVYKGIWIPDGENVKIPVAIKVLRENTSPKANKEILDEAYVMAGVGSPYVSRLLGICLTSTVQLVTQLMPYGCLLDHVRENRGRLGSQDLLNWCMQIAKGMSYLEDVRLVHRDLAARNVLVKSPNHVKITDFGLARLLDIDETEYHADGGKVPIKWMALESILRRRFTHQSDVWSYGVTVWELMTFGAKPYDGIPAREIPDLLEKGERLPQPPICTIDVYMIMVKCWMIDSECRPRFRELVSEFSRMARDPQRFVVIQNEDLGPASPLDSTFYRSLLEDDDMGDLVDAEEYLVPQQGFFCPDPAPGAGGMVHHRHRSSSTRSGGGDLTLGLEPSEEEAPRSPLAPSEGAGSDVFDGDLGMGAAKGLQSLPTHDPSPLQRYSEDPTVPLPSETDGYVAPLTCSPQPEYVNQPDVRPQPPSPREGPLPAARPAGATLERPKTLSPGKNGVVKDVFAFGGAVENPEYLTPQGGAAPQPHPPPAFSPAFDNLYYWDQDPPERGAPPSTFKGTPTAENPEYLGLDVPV
T1 sequence (P04049 whole entry): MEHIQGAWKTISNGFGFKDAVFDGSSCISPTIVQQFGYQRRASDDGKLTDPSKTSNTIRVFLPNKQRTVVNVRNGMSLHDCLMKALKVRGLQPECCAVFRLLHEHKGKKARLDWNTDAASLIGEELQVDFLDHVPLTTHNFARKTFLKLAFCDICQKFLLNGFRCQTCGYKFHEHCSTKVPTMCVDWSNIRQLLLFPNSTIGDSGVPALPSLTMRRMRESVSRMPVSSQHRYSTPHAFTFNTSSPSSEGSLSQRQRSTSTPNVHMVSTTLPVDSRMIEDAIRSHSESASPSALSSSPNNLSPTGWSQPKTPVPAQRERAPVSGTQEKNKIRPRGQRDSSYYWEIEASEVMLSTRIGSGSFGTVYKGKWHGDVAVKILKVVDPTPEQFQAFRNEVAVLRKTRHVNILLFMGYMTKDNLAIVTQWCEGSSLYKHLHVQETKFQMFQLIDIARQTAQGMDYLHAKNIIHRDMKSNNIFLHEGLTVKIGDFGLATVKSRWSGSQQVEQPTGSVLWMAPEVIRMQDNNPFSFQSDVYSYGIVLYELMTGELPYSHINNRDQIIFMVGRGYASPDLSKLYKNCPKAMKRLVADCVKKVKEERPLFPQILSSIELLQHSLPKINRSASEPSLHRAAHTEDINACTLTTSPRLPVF
T2 sequence (P35968 20-1356): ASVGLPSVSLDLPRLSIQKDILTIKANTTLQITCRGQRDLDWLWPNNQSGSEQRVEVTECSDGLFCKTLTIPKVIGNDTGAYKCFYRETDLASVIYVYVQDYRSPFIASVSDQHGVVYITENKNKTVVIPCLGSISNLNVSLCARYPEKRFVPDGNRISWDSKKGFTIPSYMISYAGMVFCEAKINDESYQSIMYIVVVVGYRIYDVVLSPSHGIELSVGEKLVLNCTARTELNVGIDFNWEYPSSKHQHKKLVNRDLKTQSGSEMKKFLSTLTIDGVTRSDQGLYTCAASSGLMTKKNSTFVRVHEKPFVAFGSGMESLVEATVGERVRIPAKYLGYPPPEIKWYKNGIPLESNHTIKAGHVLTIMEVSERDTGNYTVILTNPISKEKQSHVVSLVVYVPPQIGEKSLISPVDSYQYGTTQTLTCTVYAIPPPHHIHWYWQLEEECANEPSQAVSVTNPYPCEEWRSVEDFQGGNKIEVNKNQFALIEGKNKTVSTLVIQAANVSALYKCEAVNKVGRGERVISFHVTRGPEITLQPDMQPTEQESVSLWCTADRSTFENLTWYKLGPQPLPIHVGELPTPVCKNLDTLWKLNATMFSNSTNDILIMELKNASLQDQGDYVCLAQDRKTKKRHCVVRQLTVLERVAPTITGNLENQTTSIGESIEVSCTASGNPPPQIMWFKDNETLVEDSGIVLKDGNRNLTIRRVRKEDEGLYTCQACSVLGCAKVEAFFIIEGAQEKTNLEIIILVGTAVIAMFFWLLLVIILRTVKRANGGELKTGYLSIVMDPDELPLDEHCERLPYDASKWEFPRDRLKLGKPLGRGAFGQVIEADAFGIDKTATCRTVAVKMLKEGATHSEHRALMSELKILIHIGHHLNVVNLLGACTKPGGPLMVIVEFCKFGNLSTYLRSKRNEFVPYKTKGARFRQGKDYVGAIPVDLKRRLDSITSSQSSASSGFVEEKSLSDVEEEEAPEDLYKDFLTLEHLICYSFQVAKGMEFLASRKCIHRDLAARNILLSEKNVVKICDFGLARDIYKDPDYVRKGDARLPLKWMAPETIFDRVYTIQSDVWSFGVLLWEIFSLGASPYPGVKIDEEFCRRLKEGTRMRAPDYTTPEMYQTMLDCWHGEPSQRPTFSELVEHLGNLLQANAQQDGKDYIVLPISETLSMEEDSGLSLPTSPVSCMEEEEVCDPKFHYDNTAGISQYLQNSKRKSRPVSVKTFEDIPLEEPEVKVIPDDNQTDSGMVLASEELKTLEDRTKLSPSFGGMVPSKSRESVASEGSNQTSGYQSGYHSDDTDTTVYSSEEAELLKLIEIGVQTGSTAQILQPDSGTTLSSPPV

| c-Raf-1/ %-inh. [%] (c-Raf-1) | KDR (% inh) (VEGF receptor (KDR)) | HER-2/%-inh. [%] [1] | Compound |
| --- | --- | --- | --- |
| 51% | 85% | 78% | CN1CCN(C(=O)c2ccc(-c3cc4c(N(C)C)ncnc4[nH]3)cc2)CC1 [Example 3, [4-(4-Dimethylamino-7H-pyrrolo[2,3-d]pyrimidin-6-yl)-phenyl]-(4-methyl-piperazin-1-yl)-methanone] |
| 40% | 86% | 87% | CN1CCN(Cc2ccc(-c3cc4c(N(C)C)ncnc4[nH]3)cc2)CC1 [Example 4, Dimethyl-{6-[4-(4-methyl-piperazin-1-ylmethyl)-phenyl]-7H-pyrrolo[2,3-d]pyrimidin-4-yl}-amine] |
| 48% | 79% | 78% | CCN(CC)CCCNC(=O)c1ccc(-c2cc3c(N(C)C)ncnc3[nH]2)cc1 [Example 5, N-(3-Diethylamino-propyl)-4-(4-dimethylamino-7H-pyrrolo[2,3-d]pyrimidin-6-yl)-benzamide] |
| 63% | 83% | 80% | CN(C)c1ncnc2[nH]c(-c3ccc(C(=O)N4CCOCC4)cc3)cc12 [Example 6, [4-(4-Dimethylamino-7H-pyrrolo[2,3-d]pyrimidin-6-yl)-phenyl]-morpholin-4-yl-methanone] |
| – | 79% | 71% | CN(C)c1ncnc2[nH]c(-c3ccc(C(=O)NCCCN4CCOCC4)cc3)cc12 [Example 7, 4-(4-Dimethylamino-7H-pyrrolo[2,3-d]pyrimidin-6-yl)-N-(3-morpholin-4-yl-propyl)-benzamide] |
| 22% | 67% | 85% | CNc1ncnc2[nH]c(-c3ccc(C(=O)N4CCN(C)CC4)cc3)cc12 [Example 12, [4-(4-Methylamino-7H-pyrrolo[2,3-d]pyrimidin-6-yl)-phenyl]-(4-methyl-piperazin-1-yl)-methanone] |
| 64% | 80% | 88% | CN1CCN(C(=O)c2ccc(-c3cc4c(NCCCO)ncnc4[nH]3)cc2)CC1 [Example 15, {4-[4-(3-Hydroxy-propylamino)-7H-pyrrolo[2,3-d]pyrimidin-6-yl]-phenyl}-(4-methyl-piperazin-1-yl)-methanone] |
| 67% | 85% | 93% | CNc1ncnc2[nH]c(-c3ccc(CN4CCN(C)CC4)cc3)cc12 [Example 16, Methyl-{6-[4-(4-methyl-piperazin-1-ylmethyl)-phenyl]-7H-pyrrolo[2,3-d]pyrimidin-4-yl}-amine] |
| 100% | 81% | 87% | CCCNc1ncnc2[nH]c(-c3ccc(C(=O)N4CCN(C)CC4)cc3)cc12 [Example 17, (4-Methyl-piperazin-1-yl)-[4-(4-propylamino-7H-pyrrolo[2,3-d]pyrimidin-6-yl)-phenyl]-methanone] |
| 100% | 83% | 94% | CCCNc1ncnc2[nH]c(-c3ccc(CN4CCN(C)CC4)cc3)cc12 [Example 18, {6-[4-(4-Methyl-piperazin-1-ylmethyl)-phenyl]-7H-pyrrolo[2,3-d]pyrimidin-4-yl}-propyl-amine] |
| 100% | 85% | 89% | CCCN(C)c1ncnc2[nH]c(-c3ccc(CN4CCN(C)CC4)cc3)cc12 [Example 19, Methyl-{6-[4-(4-methyl-piperazin-1-ylmethyl)-phenyl]-7H-pyrrolo[2,3-d]pyrimidin-4-yl}-propyl-amine] |
| 100% | 75% | 93% | CN(C)c1ncnc2[nH]c(-c3ccc(Cn4ccnc4)cc3)cc12 [Example 24, [6-(4-Imidazol-1-ylmethyl-phenyl)-7H-pyrrolo[2,3-d]pyrimidin-4-yl]-dimethylamine] |
| 96% | 50% | 39% | CN(C)c1ncnc2[nH]c(-c3ccc(Cc4ccc[nH]4)cc3)cc12 [Example 25, Dimethyl-{6-[4-(1H-pyrrol-2-ylmethyl)-phenyl]-7H-pyrrolo[2,3-d]pyrimidin-4-yl}-amine] |
| 100% | 58% | 75% | CN(C)c1ncnc2[nH]c(-c3ccc(Cn4cnnn4)cc3)cc12 [Example 27, Dimethyl-[6-(4-tetrazol-1-ylmethyl-phenyl)-7H-pyrrolo[2,3-d]pyrimidin-4-yl]-amine] |
| 80% | 76% | 85% | CN(C)c1ncnc2[nH]c(-c3ccc(CNCCCO)cc3)cc12 [Example 28, 3-[4-(4-Dimethylamino-7H-pyrrolo[2,3-d]pyrimidin-6-yl)-benzylamino]-propan-1-ol] |
| 77% | 76% | 79% | COCCN(C)Cc1ccc(-c2cc3c(N(C)C)ncnc3[nH]2)cc1 [Example 29, [6-(4-{[(2-Methoxy-ethyl)-methyl-amino]-methyl}-phenyl)-7H-pyrrolo[2,3-d]pyrimidin-4-yl]-dimethyl-amine] |
| 44% | 76% | – | CNc1ncnc2[nH]c(-c3ccc(C(C)(C)O)cc3)cc12 [Example 35, 2-[4-(4-Methylamino-7H-pyrrolo[2,3-d]pyrimidin-6-yl)-phenyl]-propan-2-ol] |
